Laboratory results: US11739305B2, “Sialyltransferase variants having neosialidase activity” (The Regents of the University of California, priority 2017, dated 2023)

Target: T1, Pd2,6ST S232L/T356S/W361F (Photobacterium damselae, UniProt O66375, S232L/T356S/W361F)
T1 construct: (Δ15Pd2, 6ST); His6 tag with thrombin site ([…]) (N); made in house; host or cells: E. coli BL21(DE3)
Assay: Linkage specificity assays (relative sialidase activity towards sialosides, HPLC)
Type: biochemical
Settings: for Relative sialidase activity: of Pd2,6ST S232L/T356S/W361F towards the sialoside, 1 mM substrate, 0.5 mM CMP, pH 6.0, 37° C., 30 minutes, relative to compound 2
Protocol: Reactions were performed in duplicate at 37° C. for 30 minutes in MES buffer (100 mM, pH 6.0), MgCl2 (10 mM), CMP (0.5 mM), and 1 mM substrate. Enzyme concentrations were 0.030 μM for 2, 0.30 μM for 7, 3.0 μM 6, and 30.0 μM for 3-5. These conditions provided testing at initial rates (1.2-24% yield) for each substrate. Reactions were stopped by adding an equal volume of pre-chilled methanol. The mixtures were incubated on ice for 30 minutes and centrifuged at 13,000 rpm for 5 minutes. Supernatants were analyzed with an Infinity 1290-II HPLC equipped with a UV-Vis detector (Agilent Technologies, CA). The HPLC procedure utilized a ZORBAX Eclipse Plus C18 Rapid Resolution HD 1.8 μm particle 2.1×50 mm column (Agilent Technologies, CA), an isocratic flow of 1 mL min′ for a 9% acetonitrile and 91% aqueous solution containing 0.1% TFA, and an injection volume of 2 μL. The para-nitrophenyl absorbance signal was monitored at 315 nm.

[1] = cleavage by Pd2,6ST S232L/T356S/W361F

Compound	neosialidase activity toward the sialoside, in words [1]	Relative sialidase activity	activity lower than toward Neu5Acα2-6GalβpNP (2) [1]	cleavage rate as percent of the rate of Neu5Acα2-6GalβpNP (2) [1]
CC(=O)N[C@H]1[C@H]([C@H](O)[C@H](O)CO)OC(OC[C@H]2O[C@@H](Oc3ccc([N+](=O)[O-])cc3)[C@H](O)[C@@H](O)[C@H]2O)(C(=O)O)C[C@@H]1O (stereo partly shown) [Compound 2, Neu5Acα2-6GalβpNP]	suitable substrate	1.0	–	–
CC(=O)N[C@H]1[C@H]([C@H](O)[C@H](O)CO)OC(O[C@H]2[C@@H](O)[C@@H](CO)O[C@@H](Oc3ccc([N+](=O)[O-])cc3)[C@@H]2O)(C(=O)O)C[C@@H]1O (stereo partly shown) [Compound 3, Neu5Acα2-3GalβpNP]	–	2.5 × 10^−3	~400 fold	–
CC(=O)NC1C(O)CC(OC(CO)C(O)C2OC(OC3C(O)C(CO)OC(Oc4ccc([N+](=O)[O-])cc4)C3O)(C(=O)O)CC(O)C2NC(C)=O)(C(=O)O)OC1C(O)C(O)CO (stereo not shown) [Compound 4, Neu5Acα2-8Neu5Acα2-3GalβpNP]	not detected	3.3 × 10^−3	–	–
O=C(O)C1(OCC2OC(Oc3ccc([N+](=O)[O-])cc3)C(O)C(O)C2O)CC(O)C(O)C(C(O)C(O)CO)O1 (stereo not shown) [Compound 5, Kdnα2-6GalβpNP]	not a suitable substrate	9.8 × 10^−4	–	0.1%
O=C(CO)NC1C(O)CC(OCC2OC(Oc3ccc([N+](=O)[O-])cc3)C(O)C(O)C2O)(C(=O)O)OC1C(O)C(O)CO (stereo not shown) [Compound 6, Neu5Gcα2-6GalβpNP]	–	1.2 × 10^−1	–	approximately 12%
CC(=O)NC1C(Oc2ccc([N+](=O)[O-])cc2)OC(COC2(C(=O)O)CC(O)C(NC(C)=O)C(C(O)C(O)CO)O2)C(O)C1O (stereo not shown) [Compound 7, Neu5Acα2-6GalNAcβpNP]	higher	1.9	–	–
